SMILES strings stand for the structures.

Here are results for 1 compound from patent US20110212434A1, “NOVEL HIV-BASED RECOMBINANT VIRAL CLONES AND USE THEREOF IN ANALYTICAL METHODS” (priority 2004, published 2011).

This test concerns virus with the mutations M41L, K07R, T215F, K219Q. The test is described as follows: Determination system for phenotypic resistances to antiretroviral drugs (renilla activity, recombinant viral clones). Format: cell-based, HIV. The conditions noted are these: K219Q versus wild type virus, FIG. 2b. On the procedure:
It can be schematically seen in FIGS. 1a and 1b how the viral particles are produced in culture supernatants during the 48 hours following transfection of the recombinat virus carrying viral sequences amplified from patients's plasma in 293T cells. The 293T cell line was obtained from the Deposit of the ATCC. The progeny of recombinant viruses are collected 48 hours after transfection in and used to infect the SSPA-B7 clone as target. This cellular clone was obtained by the applicant from the MT-2 cell line by means of transfection of an expression vector of the gene CCR5 provided with a resistance marker for Genetycin. Expression of both major viral coreceptors (CCR5 as a transgene and CXCR4 naturally) allows the infection with viral carrying different envelopes that use CCR5, CXCR4 receptors or both. […] The capacity of the viruses to complete a replication cycle is quantified by measuring the luciferase activity in the target cells. When phenotypic resistance to protease inhibitors is analyzed, the drug should be added to the producer cell (293-T) because viral morphogenesis driven by the protease is generated in this step of the viral cycle. In contrast, phenotypic resistance towards inhibitors of reverse transcriptase and of entry is measured by adding the drugs to the infected cells because such processes (entry and retrotranscription) take place in the target cell. […]

For the compound `Cc1cn([C@H]2C[C@H](N=[N+]=[N-])[C@@H](CO)O2)c(=O)[nH]c1=O` [AZT], the “Fold (AZT resistance)” value was determined as 36.
